{"source": "patent US7270805B1", "about": "“Skin lightening agents, compositions and methods” (Conopco, Inc., priority 2006, dated 2007)", "system": "Melanoderm cultures", "experiment": "Solvable melanin assay on Melanoderm cultures (3-D skin model)", "assay_type": "cell-based", "settings": "for OD = 490 nm (melanin content, Solvable melanin assay): Melanoderm cultures fed every other day for 2 weeks, DMSO control 1.292, untreated 1.259", "method": "This experiment was carried out using Melanoderm cultures. Luminescence was measured using a chromameter to assay the degree of melanization of a 3-D skin model.\nMethod for Melanoderm Cultures\nMelanoderm cultures were obtained from MatTek Corporation, Ashland, Mass. The Melanoderm was maintained according to the manufacturer's instructions. The basal media used for the maintenance of the Melanoderm cultures was DMEM supplemented with unspecified quantities of Epidermal growth factor, Insulin, Hydrocortisone, and proprietary epidermal differentiation compounds, in addition to anti-fungal and antibiotics.\nFor the long term maintenance of the Melanoderms, the basal media was supplemented with both bFGF and a-MSH, compounds which are stimulators of melanocyte growth and melanogenesis. The cultures were fed every other day for a total of 2 weeks—fresh active preparations, prepared in DMSO or culture media, were also applied to the Melanoderms when feeding was performed. Each treatment condition was done in duplicate and digital photographs were taken of the Melanoderm cultures to assess overall pigmentation. As well, microscopic images of the Melanoderms were done to assess the cell viability of the keratinocytes and melanocytes. For further evidence that the treatments were/not cytotoxic, an LDH assay (Promega, Madison, Wis.) was performed on the supernatants from 24 hour post-treatment cultures.\nTo prepare tissues for assay:\nAfter treatment, tissues are usually frozen until completion of the experiment. Thaw tissues, a few at a time and place in D-PBS to remove excess phenol red from the culture medium and residual test article. Remove a single tissue from the insert. Blot dry and place in 1.7 ml. microfuge tube. Repeat for all samples. Add 250 ul Solvable™ (Tissue and Gel Solubilizer 0.5 M—Packard BioScience Co. Catalogue No. 6NE9100 (NEF910)). Close the tube and make sure that the tissue is completely submerged. Incubate at 60° C. overnight along with standards. In the morning, vortex the samples. Sometimes thick tissues will require additional time to complete the solution process. To prepare standard: Dissolve Melanin (Sigma cat. M 8631) in Solvable at 1 mg/ml. The solution may be warmed gently for 15 minutes at 37° C. Store solution in dark. To prepare standard curve: Prepare dilutions from the standard containing 0 ug to 250 ug of melanin in a total of 250 ul Solvable. Incubate dilutions along with samples. To read assay: Cool samples and standards. Centrifuge at 13,000 rpm for 5 minutes to pellet. Fill microwell plate (C-96) with 200 ul each of samples and standards. There is some foaming of samples when pipetted. Blow gently across the samples to break bubbles prior to reading the plate. Read plate at […].", "data": [{"compound": "CCC(=O)n1c(=O)sc2ccccc21", "note": "[3-propionylbenzothiazol-2-one]", "values": [{"measurement": "OD = 490 nm (melanin content, Solvable melanin assay)", "setting": "125 uM", "value": 1.522}, {"measurement": "OD = 490 nm (melanin content, Solvable melanin assay)", "setting": "250 uM", "value": 1.509}, {"measurement": "OD = 490 nm (melanin content, Solvable melanin assay)", "setting": "375 uM", "value": 1.377}, {"measurement": "OD = 490 nm (melanin content, Solvable melanin assay)", "setting": "500 uM", "value": 0.889}, {"measurement": "OD = 490 nm (melanin content, Solvable melanin assay)", "setting": "750 uM", "value": 0.727}, {"measurement": "OD = 490 nm (melanin content, Solvable melanin assay)", "setting": "1000 uM", "value": 0.184}, {"measurement": "effect on melanin synthesis", "setting": "conclusion from Table 5, Melanoderm cultures", "value": "reduce melanin synthesis"}]}]}
